Key:
[1] = test system: ALOMY; experiment: Post-emergence action against ALOMY, 320 g/ha; type: in vivo, Alopecurus myosuroides; conditions: dosage 320 g/ha, visual rating about 3 weeks after treatment vs untreated controls (100% = plants died)
Method in brief: (§1)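 Greenhouse-grown plants sprayed post-emergence at the one-leaf stage, 2 to 3 weeks after sowing, with WP or EC formulations plus 0.5% additive at 600 l/ha water, at 320 g/ha. Activity rated visually after about 3 weeks versus untreated controls (100% = plants died, 0% = like control).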

[2] = test system: VERPE; experiment: Post-emergence action against VERPE, 1.28 kg/ha; type: in vivo, Veronica persica; conditions: dosage 1280 g/ha, visual rating about 3 weeks after treatment vs untreated controls (100% = plants died); for pest or weed control at 1280 g/ha: Veronica persica, 504 h
Method in brief: (§2)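 Activity scored visually roughly 3 weeks after treatment against untreated plants (0% = as control, 100% = dead). Plants grown in sandy loam in greenhouse, treated at one-leaf stage, 2–3 weeks post-sowing, with WP/EC spray containing 0.5% additive at 600 l/ha.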

[3] = test system: VERPE; experiment: Pre-emergence action against VERPE, 1280 g/ha; type: in vivo, Veronica persica; conditions: scored visually after about 3 weeks vs untreated controls (100% = plants have died); for pest or weed control at 1280 g/ha: Veronica persica, 504 h
Method in brief: (§3)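 Mono- and dicot weed seeds sown in sandy loam were treated on the covering soil surface with WP or EC formulations plus 0.5% additive at 600 L water/ha. Pots stayed in a greenhouse; damage was scored visually after ~3 weeks as percent versus untreated controls (100% = dead).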

[4] = test system: ALOMY; experiment: Post-emergence action against ALOMY, 1.28 kg/ha; type: in vivo, Alopecurus myosuroides; conditions: dosage 1280 g/ha, visual rating about 3 weeks after treatment vs untreated controls
Method in brief: as §2

[5] = test system: AVEFA; experiment: Pre-emergence action at 320 g/ha against AVEFA; type: in vivo; conditions: visual scoring after about 3 weeks vs untreated controls; for pest or weed control at 320 g/ha: Avena fatua, 504 h
Method in brief: (§4)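 Pre-emergence soil-surface spray: WP or EC formulation, aqueous, 0.5% additive, 600 l/ha water volume. Greenhouse growth about 3 weeks; visual percent effect relative to untreated pots.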

[6] = test system: ALOMY; experiment: Pre-emergence action against ALOMY, 1280 g/ha; type: in vivo, Alopecurus myosuroides; conditions: visual scoring after about 3 weeks vs untreated controls, 100% = plants have died, 0% = like control plants
Method in brief: as §3

[7] = test system: VIOTR; experiment: Post-emergence action at 320 g/ha against VIOTR; type: in vivo, Viola tricolor; conditions: visual rating about 3 weeks after treatment vs untreated controls; for pest or weed control at 320 g/ha: Viola tricolor, 504 h
Method in brief: as §1

[8] = test system: PHBPU; experiment: Pre-emergence action at 320 g/ha against PHBPU; type: in vivo; conditions: visual scoring after about 3 weeks vs untreated controls
Method in brief: as §4

[9] = test system: LOLRI; experiment: Pre-emergence action against LOLRI, 1280 g/ha; type: in vivo, Lolium rigidum; conditions: visual scoring after about 3 weeks vs untreated controls, 100% = plants have died, 0% = like control plants; for pest or weed control at 1280 g/ha: Lolium rigidum, 504 h
Method in brief: as §3

[10] = test system: AVEFA; experiment: Post-emergence action at 320 g/ha against AVEFA; type: in vivo; conditions: visual rating about 3 weeks after treatment vs untreated controls; for pest or weed control at 320 g/ha: Avena fatua, 504 h
Method in brief: as §1

[11] = test system: DIGSA; experiment: Post-emergence action against DIGSA, 1.28 kg/ha; type: in vivo, Digitaria sanguinalis; conditions: dosage 1280 g/ha, visual rating about 3 weeks after treatment vs untreated controls
Method in brief: as §2

[12] = test system: DIGSA; experiment: Pre-emergence action against DIGSA, 1280 g/ha; type: in vivo, Digitaria sanguinalis; conditions: visual scoring after about 3 weeks vs untreated controls, 100% = plants have died, 0% = like control plants
Method in brief: as §3

[13] = test system: LOLRI; experiment: Pre-emergence action at 320 g/ha against LOLRI; type: in vivo, Lolium rigidum; conditions: visual scoring after about 3 weeks vs untreated controls; for pest or weed control at 320 g/ha: Lolium rigidum, 504 h
Method in brief: as §4

[14] = test system: STEME; experiment: Pre-emergence action at 320 g/ha against STEME; type: in vivo, Stellaria media; conditions: greenhouse, scored visually after about 3 weeks vs untreated controls, 100% = plants have died, 0% = like control plants
Source text: b) Seeds of monocotyledonous and dicotyledonous weed plants and crop plants are placed in plastic or organic planting pots and covered with soil. The compounds of the invention, formulated in the form of wettable powders (WP) or as emulsion concentrates (EC), are then applied onto the surface of the covering soil as aqueous suspension or emulsion with addition of 0.5% additive at a water application rate of 600 l/ha (converted). After the treatment, the pots are placed in a greenhouse and kept under good growth conditions for the trial plants. After about 3 weeks, the effect of the preparations is scored visually in comparison with untreated controls as percentages. For example, 100% activity=the plants have died, 0% activity=like control plants. Tables 13 to 26 below show the effects of selected compounds of the general formula (I) on various harmful plants and at an application rate corresponding to 320 g/ha, which were obtained by the experimental procedure mentioned above.

[15] = test system: HORMU; experiment: Post-emergence action at 320 g/ha against HORMU; type: in vivo, Hordeum murinum; conditions: visual rating about 3 weeks after treatment vs untreated controls
Source text: Accordingly, the compounds of the invention have good herbicidal action against a broad spectrum of weed grasses and broad-leaved weeds and are therefore suitable for controlling unwanted vegetation by the post-emergence method. • b) Seeds of monocotyledonous and dicotyledonous weeds and crop plants are placed in sandy loam in plastic or organic planting pots, covered with soil and cultivated in a greenhouse under controlled growth conditions. 2 to 3 weeks after sowing, the test plants are treated at the one-leaf stage. The compounds of the invention, formulated in the form of wettable powders (WP) or as emulsion concentrates (EC), are then sprayed onto the green parts of the plants as aqueous suspension or emulsion with addition of 0.5% additive at a water application rate of 600 l/ha (converted). After the test plants have been kept in the greenhouse under optimum growth conditions for about 3 weeks, the activity of the preparations is rated visually in comparison to untreated controls. For example, 100% activity=the plants have died, 0% activity=like control plants. Tables 39 to 49 below show the effects of selected compounds of the general formula (I) according to Tables 1 and 2 on various harmful plants and at an application rate corresponding to 320 g/ha, which were obtained by the experimental procedure mentioned above.

[16] = test system: MATIN; experiment: Post-emergence action against MATIN, 1.28 kg/ha; type: in vivo, Tripleurospermum inodorum (Matricaria inodora); conditions: dosage 1280 g/ha, visual rating about 3 weeks after treatment vs untreated controls (100% = plants died)
Method in brief: as §2

| Compound | Post-emergence action against ALOMY [1] | Post-emergence action against VERPE [2] | Pre-emergence action against VERPE [3] | Post-emergence action against ALOMY [4] | Pre-emergence action against AVEFA in % [5] | Pre-emergence action against ALOMY [6] | Post-emergence action against VIOTR in % [7] | Pre-emergence action against PHBPU in % [8] | Pre-emergence action against LOLRI [9] | Post-emergence action against AVEFA in % [10] | Post-emergence action against DIGSA [11] | Pre-emergence action against DIGSA [12] | Pre-emergence action against LOLRI in % [13] | pest or weed control at 1280 g/ha [3] | Pre-emergence action at 320 g/ha against STEME in % [14] | pest or weed control at 320 g/ha [5] | Post-emergence action against MATIN [16] | pest or weed control at 320 g/ha [7] | pest or weed control at 1280 g/ha [9] | pest or weed control at 320 g/ha [10] | further results |
| --- | --- | --- | --- | --- | --- | --- | --- | --- | --- | --- | --- | --- | --- | --- | --- | --- | --- | --- | --- | --- | --- |
| COC(=O)CNC(=O)COc1nn(-c2ccccc2F)c(-c2ccc(F)nc2)c1Br [Example X-002] | 100% | 90% | 100% | 90% | 100% | 100% | 90% | 80% | 100% | 100% | 100% | 100% | 100% | – | – | – | – | – | – | – | – |
| COC(=O)COc1nn(-c2ccccc2F)c(-c2cncnc2)c1Br [VI-004, Methyl {[4-bromo-1-(2-fluorophenyl)-5-(pyrimidin-5-yl)-1H-pyrazol-3-yl]oxy}acetate] | – | – | – | – | – | – | – | – | – | – | – | – | – | 90% | 90% | 90% | 100% | 80% | 100% | 100% | pest or weed control at 1280 g/ha [2]: 90%; Post-emergence action against HORMU in % [15]: 90%; pest or weed control at 320 g/ha [13]: 90% |
| COC(=O)[C@@H](C)Oc1nn(-c2ccccc2F)c(-c2cncnc2)c1Br [VI-011, Methyl (2R)-2-{[4-bromo-1-(2-fluorophenyl)-5-(pyrimidin-5-yl)-1H-pyrazol-3-yl]oxy}propanoate] | 90% | – | – | 100% | – | 90% | – | 90% | – | – | 100% | 100% | – | 100% | – | 80% | – | 90% | 100% | 90% | pest or weed control at 320 g/ha [13]: 100% |
| CCOC(=O)COc1nn(-c2ccccc2F)c(-c2ccc(F)nc2)c1C(F)(F)F [VII-010] | 90% | 90% | 100% | 100% | 90% | 100% | 80% | 90% | 100% | 100% | 100% | 100% | 100% | – | – | – | 90% | – | – | – | – |
| CCOC(=O)COc1nn(-c2ccccc2F)c(-c2cncc(F)c2)c1Br [VII-015] | 90% | 100% | 100% | 100% | 90% | 90% | 90% | 90% | 100% | 90% | 100% | 90% | 90% | – | – | – | 100% | – | – | – | – |
| O=C(O)COc1nn(-c2ccccc2F)c(-c2cncc(F)c2)c1Br [VII-025] | 100% | 100% | 100% | 100% | 80% | 100% | 90% | 90% | 100% | 90% | 100% | 100% | 90% | – | – | – | 90% | – | – | – | – |
| COC(=O)COc1nn(-c2ccccc2F)c(-c2ccc(F)nc2)c1C(F)(F)F [VII-031] | 100% | 100% | 100% | 100% | 100% | 100% | 90% | 80% | 100% | 90% | 100% | 100% | 100% | – | – | – | 100% | – | – | – | – |
| COC(=O)COc1nn(-c2ccccc2F)c(-c2cncc(F)c2)c1Br [VII-035] | 90% | 100% | 100% | 100% | 90% | 100% | 90% | 90% | 100% | 90% | 100% | 90% | 90% | – | – | – | 90% | – | – | – | – |
| CCOC(=O)COc1nn(-c2ccccc2F)c(-c2ccnc(F)c2)c1Br [VIII-003, Ethyl {[4-bromo-1-(2-fluorophenyl)-5-(2-fluoropyridin-4-yl)-1H-pyrazol-3-yl]oxy}acetate] | 90% | – | – | – | – | – | – | – | – | – | – | – | – | 90% | 80% | 90% | – | 80% | 90% | 90% | pest or weed control at 1280 g/ha [2]: 90%; pest or weed control at 320 g/ha [13]: 90% |
| O=C(O)COc1nn(-c2ccccc2F)c(-c2ccnc(F)c2)c1Br [VIII-004] | 90% | 90% | 90% | – | – | – | 90% | – | 100% | 100% | – | – | 90% | – | 90% | – | 90% | – | – | – | Post-emergence action against HORMU in % [15]: 90% |
